Earlier results on five molecules are cited in patent US11110113B2, “Compositions and methods for treating depression” (Gentelon, Inc., priority 2016, dated 2021).

Series [1] deals with Major Depressive Disorder. The note with it: trial versus placebo.
Series [2] deals with cerebral tissue. The following applies: six months, versus placebo; schizophrenia and Huntington's disease.
For series [3] the following is noted: oral SAMe.
For series [4], the system named is Major Depressive Disorder. The following applies: double-blind studies; intravenous or intramuscular (parenteral).
The test system of series [5] is depression.

With `CC/C=C\C/C=C\C/C=C\C/C=C\C/C=C\C/C=C\CCC(=O)O` [DHA, all-cis-4,7,10,13,16,19-docosahexaenoic acid], in series [1], the “efficacy in major depressive disorder / mood-disordered population” value is recorded as “negative result”. `CC/C=C\C/C=C\C/C=C\C/C=C\C/C=C\CCCC(=O)OCC` [E-EPA]: the “efficacy in major depressive disorder / mood-disordered population” value in series [1] is recorded as “advantage over placebo”. For the same molecule, in series [2], the “grey and white matter” value is given as “significant increase”. For the molecule `C[S+](CC[C@H](N)C(=O)[O-])C[C@H]1O[C@@H](n2cnc3c(N)ncnc32)[C@H](O)[C@@H]1O` (stereo partly shown) [SAMe, S-Adenosyl methionine], in series [3], the half-life result is reported as “about 100 minutes”. For the same molecule, the “efficacy in treatment of Major Depressive Disorder” value in series [4] was “effective”. `Nc1nc2ncc(CNc3ccc(C(=O)N[C@@H](CCC(=O)O)C(=O)O)cc3)nc2c(=O)[nH]1` [folic acid]: in series [5] (longer term supplementation, patients with unipolar and bipolar depression), the depression symptomatology result is listed as “statistically significant improvements”. For the molecule `Nc1nc2c(c(=O)[nH]1)N(C=O)C(CNc1ccc(C(=O)N[C@@H](CCC(=O)O)C(=O)O)cc1)CN2` (stereo partly shown) [folinic acid], in series [5] (patients inadequately responsive to monotherapy with a serotonin reuptake inhibitor), the depression scores result is given as “significant reduction”.
